Legend:
[1] = tested on: mouse liver cells; test: scRNA-seq of liver after vector injection; format: in vivo
Description: (§1) Freshly tissues were washed in Hanks’ balanced salt solution, and cut into small pieces on ice, then digested with collagenase I and IV. After incubated for 30 min at 37°C with continuous shaking. The shredded tissues were filtered the 70 µm nylon mesh, and the obtained cells were centrifuged at 4°C. Red blood lysis buffer added in pelleted cells and shaked up and down 10 times, and then washed three times, finally resuspended in buffer (added 0.04% BSA in PBS). After removing dead cells in suspensions by flow cytometry, the process of single‐cell RNA‐seq following the standard instructions.
The generation of raw counts matrices was accomplished using CellRanger software, version 6.0.0, referencing the GRCm38 mouse genome. To attain a data set purified of doublets, the Scrublet software was employed. Subsequently, the filtered counts matrices underwent loading into the R software (version 4.0.3), facilitated by the Seurat package. Cells were meticulously curated to exclude those expressing either an excessive (>7000) or an insufficient (<200) number of genes, or presenting high mitochondrial counts (>20%). The raw data were then subjected to normalization using the LogNormalize method. The selection of the top 2000 highly variable genes was carried out with Seurat's FindVariableFeatures function, applying the vst method as the basis for further analysis. To harmonize the batch effects, the IntegrateData function in Seurat was employed. Dimensionality reduction was realized through Principal Component Analysis (PCA), with the leading 30 principal components (PCs) forming the basis for Uniform Manifold Approximation and Projection (UMAP) performance. Cluster identification ensued using Seurat's FindClusters function, setting the resolution at 0.5. Marker gene elucidation was achieved using the differential expression analysis through the Wilcox rank‐sum test, as implemented in the FindAllMarkers function (fold change≥2 and adjusted P≤0.05). Cell clusters underwent annotation against known cell type markers to ascertain their identity. […]

[2] = tested on: mouse lung cells; test: scRNA-seq of lung after vector injection; format: in vivo
Description: as §1
The generation of raw counts matrices was accomplished using CellRanger software, version 6.0.0, referencing the GRCm38 mouse genome. To attain a data set purified of doublets, the Scrublet software was employed. Subsequently, the filtered counts matrices underwent loading into the R software (version 4.0.3), facilitated by the Seurat package. Cells were meticulously curated to exclude those expressing either an excessive (>7000) or an insufficient (<200) number of genes, or presenting high mitochondrial counts (>20%). The raw data were then subjected to normalization using the LogNormalize method. The selection of the top 2000 highly variable genes was carried out with Seurat's FindVariableFeatures function, applying the vst method as the basis for further analysis. To harmonize the batch effects, the IntegrateData function in Seurat was employed. Dimensionality reduction was realized through Principal Component Analysis (PCA), with the leading 30 principal components (PCs) forming the basis for Uniform Manifold Approximation and Projection (UMAP) performance. Cluster identification ensued using Seurat's FindClusters function, setting the resolution at 0.5. Marker gene elucidation was achieved using the differential expression analysis through the Wilcox rank‐sum test, as implemented in the FindAllMarkers function (fold change≥2 and adjusted P≤0.05). Cell clusters underwent annotation against known cell type markers to ascertain their identity. Akin analyses focusing on subclusters of Kupffer cells and Neutrophils were conducted applying a similar methodological framework. Recognition of differentially expressed genes between two groups was facilitated by the Wilcox rank‐sum test via Seurat's FindMarkers function (fold change≥2 and adjusted P≤0.05). Data visualization was executed utilizing the ggplot2 package within the R software. Functional annotations and pathway enrichment analyses, considering the Gene Ontology (GO), were performed with the clusterProfiler package, deeming terms statistically significant at a P≤0.05.

CCCCCCCC/C=C\CCCCCCCC(=O)OCC(C[N+](C)(C)C)OC(=O)CCCCCCC/C=C\CCCCCCCC (stereo not shown) [DOTAP]
differentially expressed genes in Kupffer cells ([1]; liver, vs untreated (NS), total number of genes): 7 | differentially expressed genes in liver neutrophils ([1]; liver, vs untreated, total number of DEGs): 45 | change in cellular composition of liver ([1]; vs normal control (saline-injected)): sharp increase in the number of neutrophils and a decrease in the number of immune cells | alveolar macrophages distributed in the Sirpa+ cluster ([2]; lung scRNA-seq subclustering): 73% | differentially expressed genes in lung neutrophils ([2]; lung, vs untreated, total number of DEGs): 18 | differentially expressed genes in alveolar macrophages ([2]; lung, vs untreated, total number of genes): 12 | change in cellular composition of lung ([2]; vs untreated group): sharp increase in the number of neutrophils and alveolar macrophages and a decrease in the number of immune cells and endothelial cells
